Assay results as given in patent US10645929B2, “Pyrimidine compound” (Sumitomo Chemical Company, Limited, priority 2015, dated 2020).

Test system: cucurbit leaf beetle (Aulacophora femoralis)
Assay: Test Example 10: sprayed cucumber leaves, cucurbit leaf beetle
Assay type: in vivo
Details: 50 ppm, spray 10 mL/seedling, 2nd instar larvae, after 5 days
Procedure: Next, Test examples are used to show efficacies of the Present compounds on controlling harmful arthropods. In the following Test examples, the tests were carried out at 25° C.
Each test compound is dissolved into a mixed solution (10 μL) of xylene, DMF, and a surfactant (at a volume ratio of xylene:DMF:surfactant=4:4:1) per 1 mg of the test compound, and water containing a spreader (0.03% by volume) is added thereto to prepare a diluted solution containing a prescribed concentration of each test compound.
Cucumber seedlings (on the developmental stage of the second to third true leaf) are planted in a plastic cup, and each of the diluted solutions is sprayed into the seedlings in the ratio of 10 mL/seedling. Thereafter, the second leaves are cut out and placed into a plastic cup, and 10 heads of the 2nd instar larvae of cucurbit leaf beetle (Aulacophora femoralis) are released into the cup, and the cup is covered with a lid. After 5 days, the number of the dead insects is counted, and the mortality of insects is calculated by the following equation. Mortality (%)=(Number of dead insects/10)×100

SMILES: CCS(=O)(=O)c1cc(C(F)(F)F)ccc1-c1ncc(OCC(F)(F)C(F)C(F)(F)F)cn1 (racemic) [compound 2]
- mortality: ≥ 80%
